This is an account of results in the NIST ThermoML archive (doi:10.1021/je700131z).

For this data set the following is noted: Crystal; visual observation.

± gives the expanded uncertainty stated by the source.

For `OC[C@@H](O)[C@H](O)[C@@H](O)CO` [xylitol], the Normal melting temperature was 94.50 ± 1.1 °C.
